Experimental data: patent US8637038B2, “Methods for inhibiting allograft rejection” (Rigel Pharmaceuticals, Inc., priority 2011, dated 2014)

What was measured:
Format in all cases: in vivo, rat
[1] = tested on: Lew recipients of heterotopic BN heart transplants; assay: Five-day heart allograft study: H+E histology, ISHLT rejection classification; settings: HD (Compound I 60 mg/kg BID, Compound III 20 mg/kg BID, Tac 4 mg/kg QD); five days after transplantation
From the text: Male Brown Norway (BN) and Lewis (Lew) rats weighing 350 g were purchased from Harlan (Indianapolis, Ind.) and were housed under conventional conditions. All animals were fed standard rat chow and water ad libitum and received humane care in compliance with the Principles of Laboratory Animal Care formulated by the National Society for Medical Research and the Guide for the care and Use of Laboratory Animals published by the National Institutes of Health (National Institutes of Health publication No. 85-23, revised 1985). Allogeneic (BN-to-Lew) and syngeneic (Lew-to-Lew) heterotopic heart transplantations were performed as described previously (Ono et al., J. Thorac. Cardiovasc. Surg. 57:225-229, 1969). In brief, rats were anaesthetized using 2% isoflurane. The donor received an intravenous bolus of 500 I.U. heparin. Cardiac arrest was achieved using 20 ml Bretschneider solution (Custodiol, Dr. F. Koehler Chemie, Bensheim, Germany). […] Heart-beating score was assessed directly after transplantation for each animal from score 0 (no palpable contraction) to 4 (strong and regular contraction). Only animals with beating scores of 4 were included into the study. Compound I and Compound III were provided by Rigel (South San Francisco, Calif.) and Tacrolimus was provided by Astellas (Munich, Germany). All drugs were administrated orally each in two different concentrations: Compound I LD (15 mg/kg BID; n=6) and HD (60 mg/kg BID; n=6); […] Administration of all drugs was performed every day at the same time points. Tacrolimus was applied only once a day (QD) every 24 hours. During administration of Compound I (BID) and Compound III (BID) a 12 hour pause was kept in between each drug application. Lew recipients of heterotopic BN heart transplants were randomly assigned to their group. […] An untreated syngeneic transplant group Lew-Lew was generated as control. Grafts were recovered five days after transplantation and fixed in 4% paraformaldehyde (Science Services, Munich, Germany), dehydrated and embedded in paraffin. […] Waldeck, Carl Roth GmbH, Munster, Germany) and examined by standard light microscopy. The extent of acute cardiac graft rejection in H+E staining was examined by an experienced pathologist according to the 2004 ISHLT working formulation (Stewart et al., J. Heart Lung Transplant. 24:1710-1720, 2005).

[2] = tested on: BN-to-Lew heterotopic heart transplantations; assay: Graft survival study after 10-day treatment, with combination index; settings: no medication 7±0 days
From the text: Male Brown Norway (BN) and Lewis (Lew) rats weighing 350 g were purchased from Harlan (Indianapolis, Ind.) and were housed under conventional conditions. All animals were fed standard rat chow and water ad libitum and received humane care in compliance with the Principles of Laboratory Animal Care formulated by the National Society for Medical Research and the Guide for the care and Use of Laboratory Animals published by the National Institutes of Health (National Institutes of Health publication No. 85-23, revised 1985). Allogeneic (BN-to-Lew) and syngeneic (Lew-to-Lew) heterotopic heart transplantations were performed as described previously (Ono et al., J. Thorac. Cardiovasc. Surg. 57:225-229, 1969). In brief, rats were anaesthetized using 2% isoflurane. The donor received an intravenous bolus of 500 I.U. heparin. Cardiac arrest was achieved using 20 ml Bretschneider solution (Custodiol, Dr. F. Koehler Chemie, Bensheim, Germany). […] Heart-beating score was assessed directly after transplantation for each animal from score 0 (no palpable contraction) to 4 (strong and regular contraction). Only animals with beating scores of 4 were included into the study.
(§1) Compound I and Compound III were provided by Rigel (South San Francisco, Calif.) and Tacrolimus was provided by Astellas (Munich, Germany). All drugs were administrated orally each in two different concentrations: Compound I LD (15 mg/kg BID; n=6) and HD (60 mg/kg BID; n=6); Compound III LD (5 mg/kg BID; n=6) and HD (20 mg/kg BID; n=6); Tac LD (1 mg/kg QD; n=6) and HD (4 mg/kg QD; n=6). Administration of all drugs was performed every day at the same time points. Tacrolimus was applied only once a day (QD) every 24 hours. During administration of Compound I (BID) and Compound III (BID) a 12 hour pause was kept in between each drug application.
BN-to-Lew heterotopic heart transplantations were performed. Recipient animals were treated for 10 days according to Table 1 (10 day survival study group) and graft survival was monitored by daily palpation of the beating donor heart through the abdominal wall. Scoring was assessed according to heart-beating score of 0 to 4. The time of rejection was defined as the last day of palpable cardiac contractions and graft rejection was confirmed by laparotomy.
The median-effect principle of Chou (in Synergism and Antagonism in Chemotherapy, Chou and Rideout, eds, pp. 61-102, Academic Press, 1991) is based on the premise that the effect of each agent is related to its dose and, therefore, can be calculated using the following equation: (fa/fu)=(D/Dm)m, where fa and fu represent the fractions of the system that are affected (% inhibition or rather days of survival beyond controls) and unaffected (1−fa), respectively, by the drug at dose D. Full protection (fa=1) is defined as at least a 28-day survival of allografts. Dm is the dose required for 50% inhibition (ED50), the median effect (m) is a coefficient that describes the sigmoidicy of the dose-effect curve. The interaction between two drugs is assessed by the combination index (CI) equation for the doses to achieve x % inhibition:
[formula] for the mutually nonexclusive case, where each drug has a different mode of action. A computer software program was used to determine the dose-effect parameters (Dm, m, and r), and the CI values (CalcuSyn, Biosoft, Cambridge, United Kingdom).
Graft survival was monitored by daily palpation of the beating donor heart through the abdominal wall and treatment of animals was stopped after 10 days.

[3] = tested on: Lew recipients of heterotopic BN heart transplants; assay: Five-day heart allograft study: ELISPOT (IFN-γ, IL-4, IL-17) of recipient splenocytes; settings: LD groups (Compound I 15 mg/kg BID, Compound III 5 mg/kg BID, Tac 1 mg/kg QD); five days
Protocol: as §1
(§2) Lew recipients of heterotopic BN heart transplants were randomly assigned to their group. Animals were either left untreated (groups 1 and 2; see Table 1,5-day study) or received their group specific medication (groups 3-8; see Table 1,5-day study) by oral application. An untreated syngeneic transplant group Lew-Lew was generated as control.
Lymphocytes were isolated from freshly harvested spleens. ELISPOT assays with 1×10^7/ml mitomycin-inhibited BN splenocytes and 1×10^6/ml Lew splenocytes were performed according to the manufacturer's protocol (BD Biosciences). 96-well plates were coated with IFN-γ, IL-17, and IL-4 to assess T helper cell (Th)1-, Th17-, and Th2-responses independently. All assays were performed in quadruplicates. Spots were automatically enumerated using an ELISPOT plate reader (CTL, Cincinnati, Ohio) for scanning and analyzing.

[4] = tested on: Lew recipients of heterotopic BN heart transplants; assay: Five-day heart allograft study: donor-specific IgM antibodies by flow cytometry; settings: LD and HD groups; five days; p<0.001
Protocol: as §1, §2
Donor splenocytes were isolated and erythrocytes were lysed using the ACK buffer (Lonza, Walkersville, Md.). Sera from recipient rats were decomplemented and equal amounts of sera and splenocyte suspensions (5×10^6 cells/ml) were incubated for 30 minutes at room temperature. IgM antibodies were stained by incubation of the cells with a conjugated mouse antibody specific for the Fc-portion of rat IgM (Monoclonal Anti-rat IGM, Clone RTM-32, Sigma) followed by incubation with a 488-conjugated secondary antibody (Invitrogen). Cells were washed with PBS, fixed with 2% paraformaldehyde (Science Services), and analyzed on a FACSCalibur™ system (BD Biosciences). Fluorescence data were expressed as mean fluorescence intensity (MFI) using Flowjo software (Tree Star, Inc., Ashland, Oreg.).

In the case of `C=CC[C@@H]1/C=C(\C)C[C@H](C)C[C@H](OC)[C@H]2O[C@@](O)(C(=O)C(=O)N3CCCC[C@H]3C(=O)O[C@H](/C(C)=C/[C@@H]3CC[C@@H](O)[C@H](OC)C3)[C@H](C)[C@@H](O)CC1=O)[C@H](C)C[C@@H]2OC` [Tac, Tacrolimus, reference compound], the “hearts with ISHLT score of 1” value [1] was 67%, the “hearts with ISHLT score of 2” value [1] was 33% and the “graft survival, mean” value ([2]; HD (Compound I 60 mg/kg BID, Compound III 20 mg/kg BID, Tac 4 mg/kg QD) for 10 days) was 20 ± 3 days. For the same molecule, the “graft survival, mean” value ([2]; LD (Compound I 15 mg/kg BID, Compound III 5 mg/kg BID, Tac 1 mg/kg QD) for 10 days) was 13 ± 2 days, the “IFN-γ spot frequency (ELISPOT) compared to no medication group” value [3] was “no significant reduction” and the “donor-specific IgM antibodies (DSA) vs. no medication” value [4] was “significant suppression”.
